Measurements from patent US12180226B2, “Spirotricycle RIPK1 inhibitors and methods of uses thereof” (Merck Sharp & Dohme LLC, priority 2021, dated 2024).
Counter-ions that a name gives are not always drawn.

Target: RIPK1 (recombinant GST-RIPK1 kinase domain, residues 1-327) (Homo sapiens (Human), UniProt Q13546)
Assay: RIPK1-ADP-Glo Enzymatic Assay
Format: biochemical
Settings: ADP-Glo; 25 nM GST-RIPK1, 300 μM ATP; assay lower limit ~25 nM; read-out: RIPK1 V0 Ec50
In short: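 Luminescent ADP-Glo readout of ATP-to-ADP conversion. Conditions: 25 nM enzyme, 300 μM ATP, 3 μM dephospho-MBP, pH 7.3 HEPES buffer with 20 mM MgCl2; 30 min compound pre-incubation, 150 min reaction. EC50 via four-parameter sigmoidal regression; assay floor ~25 nM.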

Sequence of RIPK1 (recombinant GST-RIPK1 kinase domain, residues 1-327) (Q13546 1-327): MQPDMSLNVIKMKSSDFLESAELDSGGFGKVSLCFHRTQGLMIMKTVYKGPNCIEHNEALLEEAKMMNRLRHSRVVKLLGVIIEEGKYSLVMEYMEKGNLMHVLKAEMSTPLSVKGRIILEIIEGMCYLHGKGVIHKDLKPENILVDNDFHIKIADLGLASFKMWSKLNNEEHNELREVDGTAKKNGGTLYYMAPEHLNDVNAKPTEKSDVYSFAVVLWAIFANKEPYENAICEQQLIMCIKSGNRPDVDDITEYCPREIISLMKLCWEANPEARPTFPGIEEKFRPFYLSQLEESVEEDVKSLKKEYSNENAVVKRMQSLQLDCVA

Row | EC50 [nM] | SMILES
1 | 32 | O=C1N2[C@@H](CC[C@H]2c2cc(F)cc(F)c2)OC12CCN(c1ccc(OCC(F)F)c3ccnn13)CC2 [Example 19.4, (5′S,7a′R)-1-(4-(2,2-difluoroethoxy)pyrazolo [1,5-a]pyridin-7-yl)-5′-(3,5-difluorophenyl)tetrahydro-3′H-spiro[piperidine-4,2′-pyrrolo[2,1-b]oxazol]-3′-one, TFA salt]
2 | < 25 | O=C1N2[C@@H](CC[C@H]2c2ccccc2)OC12CCN(c1ccc(-c3cscn3)c3ncnn13)CC2 [Example 21.19, (5′S,7a′R)-5′-phenyl-1-[8-(1,3-thiazol-4-yl)[l,2,4]triazolo[1,5-a]pyridin-5-yl]tetrahydro-3′H-spiro[piperidine-4,2′-pyrrolo[2,1-b][1,3]oxazol]-3′-one]
3 | < 25 | O=C1N2[C@@H](CC[C@H]2c2cc(F)cc(F)c2)OC12CCN(c1ccc(Br)c3ccnn13)CC2 [Example 13.6, (5′S,7a′R)-1-(4-bromopyrazolo[1,5-a]pyridin-7-yl)-5′-(3,5-difluorophenyl)tetrahydro-3′H-spiro[piperidine-4,2′-pyrrolo[2,1-b]oxazol]-3′-one, TFA salt]
4 | < 25 | COc1nc(N2CCC3(CC2)O[C@@H]2CC[C@@H](c4ccccc4)N2C3=O)ncc1F [Example 11.29, (5′S,7a′R)-1-(5-fluoro-4-methoxypyrimidin-2-yl)-5′-phenyltetrahydro-3′H-spiro[piperidine-4,2′-pyrrolo[2,1-b][1,3]oxazol]-3′-one]
5 | 103 | O=C1N2[C@@H](CC[C@H]2c2ccccc2F)OC12CN(Cc1ccccc1)C2 [Example 22.7, (5′S,7a′R)-1-benzyl-5′-(2-fluorophenyl)tetrahydro-3′H-spiro[azetidine-3,2′-pyrrolo[2,1-b][1,3]oxazol]-3′-one]
6 | < 25 | O=C1N2[C@@H](CC[C@H]2c2cc(F)cc(F)c2)OC12CCN(c1ccc(-c3ncco3)c3ncnn13)CC2 [Example 21.1, (5′S,7a′R)-5′-(3,5-Difluorophenyl)-1-(8-(oxazol-2-yl)-[1,2,4]triazolo[1,5-a]pyridin-5-yl)tetrahydro-3′H-spiro[piperidine-4,2′-pyrrolo[2,1-b]oxazol]-3′-one]
7 | < 25 | COc1ncnc(N2CCC3(CC2)O[C@@H]2CC[C@@H](c4ccccc4)N2C3=O)c1F [Example 11.28, (5′S,7a′R)-1-(5-fluoro-6-methoxypyrimidin-4-yl)-5′-phenyltetrahydro-3′H-spiro[piperidine-4,2′-pyrrolo[2,1-b][1,3]oxazol]-3′-one]
8 | < 25 | N#Cc1cccc([C@@H]2CC[C@H]3OC4(CCN(c5ccnc6c(F)cnn56)CC4)C(=O)N32)c1F [Example 20.5, 2-fluoro-3-[(5′S,7a′R)-1-(3-fluoropyrazolo[1,5-a]pyrimidin-7-yl)-3′-oxotetrahydro-3′H-spiro[piperidine-4,2′-pyrrolo[2,1-b][1,3]oxazol]-5′-yl]benzonitrile]

The next lines start with the compound.

Row | SMILES | EC50 [nM]
9 | O=C(c1ccco1)N1CCC2(CC1)O[C@@H]1CC[C@@H](c3cc(F)cc(F)c3)N1C2=O [Example 5.50, (5′S,7a′R)-5′-(3,5-difluoro-phenyl)-1-(furan-2-carbon-yl)tetrahydro-3′H-spiro [piperidine-4,2′-pyrrolo-[2,1-b]oxazol]-3′-one] | < 25
10 | O=C1N2[C@@H](CC[C@H]2c2ccccc2)OC12CCN(c1ccc(-c3cc(O)no3)cn1)CC2 [Example 4.193, (5′S,7a′R)-1-[5-(3-hydroxy-1,2-oxazol-5-yl)pyridin-2-yl]-5′-phenyltetrahydro-3′H-spiro[piperidine-4,2′-pyrrolo[2,1-b] [1,3]oxazol]-3′-one] | < 25
11 | O=C(c1c(F)cccc1F)N1CCC2(CC1)O[C@@H]1CC[C@@H](c3cc(F)cc(F)c3)N1C2=O [Example 5.56, (5′S,7a′R)-1-(2,6-difluoro-benzoyl)-5′-(3,5-difluoro-phenyl)tetrahydro-3′H-spiro[piperidine-4,2′-pyrrolo[2,1-b]oxazol]-3'-one] | < 25
12 | CN(C)c1cccc(C(=O)N2CCC3(CC2)O[C@@H]2CC[C@@H](c4cccc(F)c4)N2C3=O)c1 [Example 6.124, (5′S,7a′R)-1-[3-(dimethylamino)-benzene-1-carbonyl]-5′-(3-fluorophenyl) tetrahydro-3′H-spiro [piperidine-4,2′-pyrrolo[2,1-b][1,3]-oxazol]-3′-one] | < 25
13 | CC1CN(c2cccc3ncnn23)CCC12O[C@@H]1CC[C@@H](c3cc(F)cc(F)c3)N1C2=O (stereo partly drawn) [Example 4.265, (5′S,7a′R)-5′-(3,5-difluorophenyl)-3-methyl-1-([1,2,4]triazolo[1,5-a]pyridin-5-yl)tetrahydro-3′H-spiro[piperidine-4,2′-pyrrolo[2,1-b] [1,3]oxazol]-3′-one] | 28.4
14 | O=C(c1cc(F)ccc1F)N1CCC2(CC1)O[C@@H]1CC[C@@H](c3ccccc3)N1C2=O [Example 1.11, (5′S,7a′R)-1-(2,5-difluorobenzene-1-carbonyl)-5′-phenyltetrahydro-3′H-spiro[piperidine-4,2′-pyrrolo[2,1-b] [1,3]oxazol]-3′-one] | < 25
15 | NC(=O)c1ccc(N2CCC3(CC2)O[C@@H]2CC[C@@H](c4ccccc4)N2C3=O)nc1 [Example 4.199, 6-[(5′S,7a′R)-3′-oxo-5′-phenyltetrahydro-1H,3′H-spiro[piperidine-4,2′-pyrrolo[2,1-b] [1,3]oxazol]-1-yl]pyridine-3-carboxamide] | 36.2
16 | O=C(c1cncnc1)N1CCC2(CC1)O[C@@H]1CC[C@@H](c3cc(F)cc(F)c3)N1C2=O [Example 6.40, (5′S,7a′R)-5′-(3,5-difluorophenyl)-1-(pyrimidine-5-car-bonyl)tetrahydro-3′H-spiro[piperidine-4,2′-pyrrolo[2,1-b][1,3]oxazol]-3′-one] | 436
17 | O=C(c1cc(F)cc(F)c1)N1CCC2(CC1)O[C@@H]1CC[C@@H](c3cc(F)cc(F)c3)N1C2=O [Example 6.48, (5′S,7a′R)-1-(3,5-difluorobenzene-1-carbonyl)-5′-(3,5-difluorophenyl)tetra-hydro-3′H-spiro [piperidine-4,2′-pyrrolo[2,1-b][1,3]oxazol]-3′-one] | 34.2
18 | N#Cc1cnc(N2CCC3(CC2)O[C@@H]2CC[C@@H](c4ccccc4F)N2C3=O)n2ncnc12 [Example 4.242, 5-[(5′S,7a′R)-5′-(2-fluorophenyl)-3′-oxotetrahydro-1H,3′H-spiro[piperidine-4,2′-pyrrolo[2,1-b] [1,3]oxazol]-1-yl] [1,2,4]triazolo[1,5-c] pyrimidine-8-carbonitrile] | < 25
19 | N#Cc1ccc(N2CCC3(CC2)O[C@@H]2CC[C@@H](c4ccccc4)N2C3=O)n2ncc(-c3ncco3)c12 [Example 4.181, 3-(1,3-oxazol-2-yl)-7-[(5′S,7a′R)-3′-oxo-5′-phenyltetrahydro-1H,3′H-spiro[piperidine-4,2′-pyrrolo[2,1-b] [1,3]oxazol]-1-yl]pyrazolo[1,5-a] pyridine-4-carbonitrile] | 110
20 | COC(=O)c1c(C)cc(N2CCC3(CC2)O[C@@H]2CC[C@@H](c4ccccc4)N2C3=O)nc1C#N [Example 4.192, methyl 2-cyano-4-methyl-6-[(5′S,7a′R)-3′-oxo-5′-phenyltetrahydro-1H,3′H-spiro[piperidine-4,2′-pyrrolo[2,1-b] [1,3]oxazol]-1-yl] pyridine-3-carboxylate] | 54.4
21 | N#Cc1cncc(N2CCC3(CC2)O[C@@H]2CC[C@@H](c4ccccc4)N2C3=O)n1 [Example 4.7, 6-[(5′S,7a′R)-3′-oxo-5′-phenyltetrahydro-1H,3′H-spiro[piperidine-4,2′-pyrrolo[2,1-b] [1,3]oxazol]-1-yl]pyrazine-2-carbonitrile] | 113
22 | NC(=O)c1ccc(N2CCC3(CC2)O[C@@H]2CC[C@@H](c4ccccc4)N2C3=O)n2ncnc12 [Example 4.212, 5-[(5′S,7a′R)-3′-oxo-5′-phenyltetrahydro-1H,3′H-spiro[piperidine-4,2′-pyrrolo[2,1-b] [1,3]oxazol]-1-yl] [1,2,4]triazolo[1,5-a] pyridine-8-carboxamide] | < 25
23 | N#Cc1cc(N2CCC3(CC2)N=C2CC[C@@H](c4cc(F)cc(F)c4)N2C3=O)ncn1 [Example 4.80, (S)-[5′-(3,5-difluorophenyl)-3′-oxo-6′,7′-dihydro-1H,3′H,5′H-spiro[piperidine-4,2′-pyrrolo[1,2-a]imidazol]-1-yl]pyrimidine-4-carbonitrile] | 494
24 | O=C1N2[C@@H](CC[C@H]2c2cccc(F)c2)OC12CCN(c1ccnc3c(F)cnn13)CC2 [Example 4.129, (5′S,7a′R)-5′-(3-fluorophenyl)-1-(3-fluoropyrazolo[1,5-a]pyrimidin-7-yl)tetrahydro-3′H-spiro[piperidine-4,2′-pyrrolo[2,1-b] [1,3]oxazol]-3′-one] | < 25
25 | O=C(c1cccc(C2CC2)c1)N1CCC2(CC1)O[C@@H]1CC[C@@H](c3cc(F)cc(F)c3)N1C2=O [Example 5.62, (5′S,7a′R)-1-(3-cyclo-propylbenzoyl)-5′-(3,5-difluorophenyl)tetrahydro-3′H-spiro[piperidine-4,2′-pyrrolo[2,1-b]oxazol]-3′-one] | < 25
26 | CC1CC2(CCN1c1ccnc3ccnn13)O[C@@H]1CC[C@@H](c3ccccc3)N1C2=O (stereo partly drawn) [Example 4.247, (4R,5′S,7a′R)-2-methyl-5′-phenyl-1-(pyrazolo[1,5-a]pyrimidin-7-yl)tetrahydro-3′H-spiro[piperidine-4,2′-pyrrolo[2,1-b] [1,3]oxazol]-3′-one] | 86.5
27 | O=C(c1cccc(C2CC2)c1)N1CCC2(CC1)O[C@@H]1CC[C@@H](c3ccccc3)N1C2=O [Example 6.156, (5′S,7a′R)-1-(3-cyclopropylbenzene-1-carbonyl)-5′-phen-yltetrahydro-3′H-spiro[piperidine-4,2′-pyrrolo[2,1-b][1,3]oxazol]-3′-one] | < 25
